# Patent publication US20130209487A1, “Treatment of Avian Species with Inhibitors of P110 Delta Signaling” (priority 2010, published 2013)
# “Also recorded” adds a separate entry of the source.
# What was measured:
# [1] = test system: A549 cell
# [2] = test system: H7N7 A/Equine/London/1416/73 influenza virus strain; design: species or system mice; conditions: mouse, in vivo
# [3] = test system: influenza virus strain PR8; type: cell-based
smiles,measurement,setting,value
Cc1ccccc1-n1c(Cn2cnc3c(N)ncnc32)nc2cccc(C)c2c1=O [IC87114],survival of A549 cell,[1],did not affect the survival
same,survival after lethal challenge,[2],increased survival; also recorded: protects mice lethally challenged with virulent influenza virus
same,influenza virus replication,[3],inhibits influenza virus replication
same,viral mRNA production reduced compared to untreated cells,[3],~25 fold
